The structures appear in SMILES notation.

The experiment addresses T1, human recombinant PAK1-KD protein (Homo sapiens, UniProt Q13153).
T1 construct: made in house; host or cells: Tini cells (insect cells) infected with recombinant baculovirus
The experiment can be described thus: PAK1-KD (kinase domain) IC50 Zlyte assay. In kind it is biochemical. Particulars: Z′-LYTE FRET peptide substrate (Ser/Thr19), 20 pM PAK1-KD, 60-minute incubation at 22° C. An excerpt: PAK1-KD (Kinase Domain) IC50 Zlyte Assay Protocol
Activity of human recombinant PAK1-KD protein may be assessed in vitro by assay of the phosphorylation of a FRET peptide substrate. Catalytically active human recombinant PAK1-KD protein is obtained by purification from Tini cells infected with a human PAK1-KD recombinant baculovirus expression vector.
The activity/inhibition of PAK1-KD was estimated by measuring the phosphorylation of a FRET peptide substrate (Ser/Thr19) labeled with coumarin and fluorescein using Z′-LYTE™ assay (Invitrogen). The peptide substrate is a consensus sequence (KKRNRRLSVA) based on various PAK substrates reported in the scientific literature. The 10 μL assay mixtures contained 50 mM HEPES (pH 7.5), 0.01% Brij-35, 10 mM MgCl2, 1 mM EGTA, 2 μM FRET peptide substrate, and 20 pM PAK1-KD. Incubations were carried out at 22° C. in black polypropylene 384-well plates (Corning Costar). […] Following the 60-minute incubation, the assay mixtures were quenched by the addition of 5 μL of Z′-LYTETm development reagent, and 1 hour later the emissions of Coumarin (445 nm) and Fluorescein (520 nm) were determined after excitation at 400 nm using an Envision plate reader (Perkin Elmer). An emission ratio (445 nm/520 nm) was determined to quantify the degree of substrate phosphorylation.

T1 sequence (Q13153 270-521 limits assumed): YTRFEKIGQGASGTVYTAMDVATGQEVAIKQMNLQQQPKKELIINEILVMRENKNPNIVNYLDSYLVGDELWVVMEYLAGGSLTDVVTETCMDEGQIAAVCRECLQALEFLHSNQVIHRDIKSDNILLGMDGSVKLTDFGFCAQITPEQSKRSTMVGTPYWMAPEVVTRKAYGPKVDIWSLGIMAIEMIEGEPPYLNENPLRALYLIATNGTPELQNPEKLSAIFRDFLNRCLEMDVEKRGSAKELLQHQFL

One may read the IC50 as the concentration at which inhibition is half-maximal. For the compound `CCn1c(=O)c(-c2cccc(S(=O)(=O)N(C)C)c2)cc2cnc(NCCC3CCN(C)CC3)nc21` [Compound I-1, 3-[8-ethyl-2-[2-(1-methyl-4-piperidyl)ethylamino]-7-oxo-pyrido[2,3-d]pyrimidin-6-yl]-N,N-dimethyl-benzenesulfonamide], the half-maximal inhibitory concentration (IC50) was 182 nM.
Regarding `CCNS(=O)(=O)c1ccc(-c2cc3cnc(NCCC4CCN(C)CC4)nc3n(CC)c2=O)c(C)c1` [Compound I-2, N-ethyl-4-[8-ethyl-2-[2-(1-methyl-4-piperidyl)ethylamino]-7-oxo-pyrido[2,3-d]pyrimidin-6-yl]-3-methyl-benzenesulfonamide], the half-maximal inhibitory concentration (IC50) is 133 nM.
The value for `CCn1c(=O)c(-c2ccc(S(=O)(=O)N(C)C)cc2C)cc2cnc(NCCC3CCN(C)CC3)nc21` [Compound I-3, 4-[8-ethyl-2-[2-(1-methyl-4-piperidyl)ethylamino]-7-oxo-pyrido[2,3-d]pyrimidin-6-yl]-N,N,3-trimethyl-benzenesulfonamide] was 1320 nM; that for `CCn1c(=O)c(-c2ccc(S(=O)(=O)N3CCOCC3)cc2C)cc2cnc(NCCC3CCN(C)CC3)nc21` [Compound I-4, 8-ethyl-6-(2-methyl-4-morpholinosulfonyl-phenyl)-2-[2-(1-methyl-4-piperidyl)ethylamino]pyrido[2,3-d]pyrimidin-7-one] was 751 nM; that for `CCn1c(=O)c(-c2ccc(S(=O)(=O)N3CCCC3)cc2C)cc2cnc(NCCC3CCN(C)CC3)nc21` [Compound I-5, 8-ethyl-2-[2-(1-methyl-4-piperidyl)ethylamino]-6-(2-methyl-4-pyrrolidin-1-ylsulfonyl-phenyl)pyrido[2,3-d]pyrimidin-7-one] was 460 nM.
Consider `CCn1c(=O)c(-c2ccc(S(=O)(=O)NC3CC3)cc2C)cc2cnc(NCCC3CCN(C)CC3)nc21` [Compound I-6, N-cyclopropyl-4-[8-ethyl-2-[2-(1-methyl-4-piperidyl)ethylamino]-7-oxo-pyrido[2,3-d]pyrimidin-6-yl]-3-methyl-benzenesulfonamide], for which the IC50 stood at 77.1 nM.
The value for `CCn1c(=O)c(-c2ccc(S(=O)(=O)NC)cc2C)cc2cnc(NCCC3CCN(C)CC3)nc21` [Compound I-7, 4-[8-ethyl-2-[2-(1-methyl-4-piperidyl)ethylamino]-7-oxo-pyrido[2,3-d]pyrimidin-6-yl]-N,3-dimethyl-benzenesulfonamide] was 582 nM; that for `CCNS(=O)(=O)c1ccc(-c2cc3cnc(NCCC4CCN(C)CC4)nc3n(CC)c2=O)c(Cl)c1` [Compound I-8, 3-chloro-N-ethyl-4-[8-ethyl-2-[2-(1-methyl-4-piperidyl)ethylamino]-7-oxo-pyrido[2,3-d]pyrimidin-6-yl]benzenesulfonamide] was 22.3 nM.
With `CCNc1ncc2cc(-c3ccc(S(=O)(=O)NCC)cc3Cl)c(=O)n(CC)c2n1` [Compound I-9, 3-chloro-N-ethyl-4-[8-ethyl-2-(ethylamino)-7-oxo-pyrido[2,3-d]pyrimidin-6-yl]benzenesulfonamide], the IC50 was 131 nM.
As for `CNS(=O)(=O)c1ccc(-c2cc3cnc(NCCC4CCN(C)CC4)nc3n(C)c2=O)c(Cl)c1` [Compound I-10, 3-chloro-N-methyl-4-[8-methyl-2-[2-(1-methyl-4-piperidyl)ethylamino]-7-oxo-pyrido[2,3-d]pyrimidin-6-yl]benzenesulfonamide], the IC50 stood at 820 nM.
The value for `CCNc1ncc2cc(-c3ccc(S(=O)(=O)NC)cc3Cl)c(=O)n(C)c2n1` [Compound I-11, 3-chloro-4-[2-(ethylamino)-8-methyl-7-oxo-pyrido[2,3-d]pyrimidin-6-yl]-N-methyl-benzenesulfonamide] was 1600 nM; that for `CCNc1ncc2cc(-c3ccc(S(=O)(=O)NC(C)C)cc3Cl)c(=O)n(C)c2n1` [Compound I-12, 3-chloro-4-[2-(ethylamino)-8-methyl-7-oxo-pyrido[2,3-d]pyrimidin-6-yl]-N-isopropyl-benzenesulfonamide] was 177 nM.
In the case of `CC(C)NS(=O)(=O)c1ccc(-c2cc3cnc(NCCC4CCN(C)CC4)nc3n(C)c2=O)c(Cl)c1` [Compound I-13, 3-chloro-N-isopropyl-4-[8-methyl-2-[2-(1-methyl-4-piperidyl)ethylamino]-7-oxo-pyrido[2,3-d]pyrimidin-6-yl]benzenesulfonamide], the concentration for half-maximal inhibition (IC50) is 80.4 nM.
The value for `CCn1c(=O)c(-c2cc(S(=O)(=O)N(C)C)ccc2Cl)cc2cnc(NCCC3CCN(C)CC3)nc21` [Compound I-14, 4-chloro-3-[8-ethyl-2-[2-(1-methyl-4-piperidyl)ethylamino]-7-oxo-pyrido[2,3-d]pyrimidin-6-yl]-N,N-dimethyl-benzenesulfonamide] was 310 nM.

These data come from patent US20140323477A1, “SERINE/THREONINE KINASE INHIBITORS” (Genentech, Inc., priority 2013, published 2014).
